From patent US20240246954A1, “COMPOSITIONS AND METHODS FOR INHIBITING KRAS” (TheRas, Inc., priority 2021, published 2024) come the findings set out here.

The Kd is the equilibrium constant for the complex coming apart.

Assay [1] deals with T1, Avi-KRAS G12D/Q25A (1-169) GppNHp/3×FLAG-PI3KCA (157-299) (Homo sapiens, UniProt P01116, G12D/Q25A).
T1 construct: Avi-KRAS G12D/Q25A (1-169) GppNHp
The experiment in a line: HTRF PI3KCA-KRAS G12D/Q25A-GppNHp disruption assay. Type of assay: biochemical. As to conditions: 1 h incubation. Put shortly:
(§1)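 Compounds titrated from 100 μM in a 10-point series, incubated with protein mix 1 h at room temperature, then HTRF reagents a further 1 h. Time-resolved fluorescence read (excitation 320 nm, emission 615 nm); activity expressed as percentage of DMSO control.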

For a further assay, the target named is GppNHp KRAS G12D (Homo sapiens, UniProt P01116, G12D). Kind of assay: SPR binding affinity, GppNHp KRAS G12D. As to conditions: GppNHp-bound KRAS G12D.
Another assay addresses GDP KRAS G12D (Homo sapiens, UniProt P01116, G12D). Kind of assay: SPR binding affinity, GDP KRAS G12D. As to conditions: GDP-bound KRAS G12D.
For assay [2], the target named is T2, Avi-KRAS G12D (1-169) GppNHp/RAF1 RBD-3×FLAG (52-151) (Homo sapiens, UniProt P01116, G12D).
T2 construct: Avi-KRAS G12D (1-169) GppNHp
Kind of assay: HTRF Raf1-KRAS G12D-GppNHp disruption assay. Type of assay: biochemical. As to conditions: 1 h incubation. In outline: as §1
(TR-FRET usually uses a lanthanide donor and a delayed reading to cut background.)

Assay [3] relates to pERK in GP2d cells (KRAS G12D). The experiment in a line: Cell-based pERK HTRF assay. As to conditions: 60 min incubation. Put shortly: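 GP2d cells (DMEM, 10% FBS) treated 60 min with compounds in a 9-point half-log series from 1 μM top concentration, 0.25% DMSO. Lysates read for pERK by HTRF (d2/Eu cryptate antibodies) after 4–24 h at room temperature; emission at 615 nm.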

Where two headings read alike, the source gives them in different places.

Sequence of GppNHp KRAS G12D (P01116 1-188 isoform P01116-2 G12D): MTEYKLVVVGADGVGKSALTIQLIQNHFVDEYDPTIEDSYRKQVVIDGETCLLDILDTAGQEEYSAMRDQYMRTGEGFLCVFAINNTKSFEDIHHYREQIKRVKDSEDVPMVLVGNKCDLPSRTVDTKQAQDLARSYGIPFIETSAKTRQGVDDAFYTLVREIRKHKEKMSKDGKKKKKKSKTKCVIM
Sequence of GDP KRAS G12D (P01116 1-188 isoform P01116-2 G12D): as above
T2 sequence (P01116 1-169 isoform P01116-2 G12D limits assumed): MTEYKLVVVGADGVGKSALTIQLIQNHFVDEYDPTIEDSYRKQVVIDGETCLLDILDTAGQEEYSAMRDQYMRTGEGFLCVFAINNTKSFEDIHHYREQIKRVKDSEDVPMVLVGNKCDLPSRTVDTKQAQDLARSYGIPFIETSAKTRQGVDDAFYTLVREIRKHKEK
T1 sequence (P01116 1-169 isoform P01116-2 G12D/Q25A limits assumed): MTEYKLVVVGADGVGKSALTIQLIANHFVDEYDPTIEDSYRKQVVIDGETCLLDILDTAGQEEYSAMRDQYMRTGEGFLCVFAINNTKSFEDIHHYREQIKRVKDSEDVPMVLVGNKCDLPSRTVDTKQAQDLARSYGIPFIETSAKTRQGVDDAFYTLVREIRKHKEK

With `CN1C2CCC1CN(c1nc(OC[C@@]34CCCN3C[C@H](F)C4)nc3c(F)c(-c4ccc(F)c5sc(N)nc45)c(C(F)(F)F)cc13)C2` [Compound 221], the IC50 fell in the range of 1000 to 10000 nM in assay [1]; 1000 to 10000 nM in assay [2]; 100 to 1000 nM in assay [3] (GP2d, 1 h). Also, the equilibrium dissociation constant (Kd) is 1000 to 10000 nM on GppNHp KRAS G12D and no more than 100 nM on GDP KRAS G12D.
With `CN1CCC[C@H]1COc1nc(NCCN)c2cc(Cl)c(-c3ccc(F)c4sc(N)nc34)c(F)c2n1` [Compound 49], the IC50 in assay [1] and in assay [2] was 1000 to 10000 nM each time. The dissociation constant Kd on GppNHp KRAS G12D is 1000 to 10000 nM; on GDP KRAS G12D, no more than 100 nM.
As for `Nc1nc2c(-c3c(C(F)(F)F)cc4c(N5CC6CCC(C5)N6)nc(OC[C@@]56CCCN5C[C@H](F)C6)nc4c3F)ccc(F)c2s1` [Compound 219, 4-(4-(3,8-diazabicyclo[3.2.1]octan-3-yl)-8-fluoro-2-(((2R,7aS)-2-fluorotetrahydro-1H-pyrrolizin-7a(5H)-yl)methoxy)-6-(trifluoromethyl)quinazolin-7-yl)-7-fluorobenzo[d]thiazol-2-amine], the IC50 was 100 to 1000 nM in assay [1]; no more than 100 nM in assay [2]; no more than 100 nM in assay [3] (GP2d, 1 h). For the same molecule, the Kd at GppNHp KRAS G12D and on GDP KRAS G12D was no more than 100 nM throughout.
Turning to `Nc1nc2c(-c3c(C(F)(F)F)cc4c(N5CC6CCC(C5)N6)nc(OC[C@@]56CCCN5C[C@H](F)C6)nc4c3F)ccc(F)c2s1` (single isomer, unassigned) [Compound 245], the IC50 in assay [1] was no more than 100 nM; in assay [2], no more than 100 nM; in assay [3] (GP2d, 1 h) it was no more than 100 nM. For the same molecule, the Kd at GppNHp KRAS G12D and at GDP KRAS G12D was no more than 100 nM throughout.
With `Nc1nc2c(-c3c(C(F)(F)F)cc4c(N[C@@H]5CCNC5)nc(OC[C@@]56CCCN5C[C@H](F)C6)nc4c3F)ccc(F)c2s1` (atropisomer, axis not shown) [Compound 249], the IC50 in assay [1] is 10000 to 30000 nM; in assay [2] it was 1000 to 10000 nM. The values for the Kd at GppNHp KRAS G12D and on GDP KRAS G12D were 1000 to 10000 nM and no more than 100 nM, respectively.
For `N#Cc1c(N)sc2c(F)ccc(-c3c(C(F)F)cc4c(N5C[C@H]6CC[C@@H](C5)N6)nc(OC[C@@]56CCCN5C[C@H](F)C6)nc4c3F)c12` [Compound 301, 4-(4-((1R,5S)-3,8-diazabicyclo[3.2.1]octan-3-yl)-6-(difluoromethyl)-8-fluoro-2-(((2R,7aS)-2-fluorotetrahydro-1H-pyrrolizin-7a(5H)-yl)methoxy)quinazolin-7-yl)-2-amino-7-fluorobenzo[b]thiophene-3-carbonitrile], the IC50 in assay [1] is 100 to 1000 nM; in assay [2] it was 100 to 1000 nM; in assay [3] (GP2d, 1 h) it was no more than 100 nM. Further, the Kd on GppNHp KRAS G12D and on GDP KRAS G12D was no more than 100 nM each time.
Regarding `CN(C)C1CN(c2nc(NCCN)c3cc(Cl)c(-c4ccc(F)c5sc(N)nc45)c(F)c3n2)C1` [Compound 46, N^1-(7-(2-amino-7-fluorobenzo[d]thiazol-4-yl)-6-chloro-2-(3-(dimethylamino)azetidin-1-yl)-8-fluoroquinazolin-4-yl)ethane-1,2-diamine], the IC50 in assay [1] and in assay [2] was 10000 to 30000 nM in each case. Besides, the dissociation constant (Kd) at GppNHp KRAS G12D is 10000 to 30000 nM; at GDP KRAS G12D it was 1000 to 10000 nM.
Consider `Nc1nc2c(-c3c(C(F)(F)F)cc4c(N5CC6CC5CN6)nc(OC[C@@]56CCCN5C[C@H](F)C6)nc4c3F)ccc(F)c2s1` (some centres unmarked) [Compound 241], for which the IC50 in assay [1] is 100 to 1000 nM; in assay [2], 100 to 1000 nM; in assay [3] (read-out: pERK-Gp2D-1hr), no more than 100 nM. Further, the Kd on GppNHp KRAS G12D and at GDP KRAS G12D was no more than 100 nM in each case.
Regarding `CN1CCC[C@H]1COc1nc(NC2CNC2)c2cc(Cl)c(-c3ccc(F)c4sc(N)nc34)c(F)c2n1` [Compound 55, 4-(4-(azetidin-3-ylamino)-6-chloro-8-fluoro-2-(((S)-1-methylpyrrolidin-2-yl)methoxy)quinazolin-7-yl)-7-fluorobenzo[d]thiazol-2-amine], the IC50 in assay [1] and in assay [2] was 1000 to 10000 nM each time. Further, the equilibrium dissociation constant (Kd) at GppNHp KRAS G12D was 1000 to 10000 nM; at GDP KRAS G12D, no more than 100 nM.
Regarding `Nc1nc2c(-c3c(Cl)cc4c(N5CCNCC5)ncnc4c3F)ccc(F)c2s1` [Compound 1, 4-(6-chloro-8-fluoro-4-(piperazin-1-yl)quinazolin-7-yl)-7-fluorobenzo[d]thiazol-2-amine], the IC50 in assay [1] and in assay [2] was 10000 to 30000 nM throughout. In addition, the Kd is 10000 to 30000 nM at GppNHp KRAS G12D and 1000 to 10000 nM at GDP KRAS G12D.
On to `N#Cc1c(N)sc2c(F)ccc(-c3c(C(F)(F)F)cc4c(N5C[C@H]6CC[C@@H](C5)N6)nc(OC[C@@]56CCCN5C[C@H](F)C6)nc4c3F)c12` [Compound 255, 4-(4-((1R,5S)-3,8-diazabicyclo[3.2.1]octan-3-yl)-8-fluoro-2-(((2R,7aS)-2-fluorotetrahydro-1H-pyrrolizin-7a(5H)-yl)methoxy)-6-(trifluoromethyl)quinazolin-7-yl)-2-amino-7-fluorobenzo[b]thiophene-3-carbonitrile], for which the IC50 was 100 to 1000 nM in assay [1]; no more than 100 nM in assay [2]; no more than 100 nM in assay [3] (GP2d, 1 h). Besides, the Kd on GppNHp KRAS G12D and on GDP KRAS G12D was no more than 100 nM in each case.
On to `CN(c1nc(OC[C@@]23CCCN2C[C@H](F)C3)nc2c(F)c(-c3ccc(F)c4sc(N)nc34)c(C(F)(F)F)cc12)C1C2C[C@H]1CN2` (some centres unmarked) [Compound 289], for which the IC50 in assay [1] and in assay [2] was 100 to 1000 nM throughout. The results for the Kd on GppNHp KRAS G12D and on GDP KRAS G12D were 100 to 1000 nM and no more than 100 nM, respectively.
On to `Nc1nc2c(-c3c(C(F)(F)F)cc4c(NC5CNC5)nc(OCC56CCCN5CCC6)nc4c3F)ccc(F)c2s1` [Compound 120], for which the IC50 in assay [1] is 100 to 1000 nM; in assay [2] it was 100 to 1000 nM; in assay [3] (GP2d, 1 h) it was greater than 1000 nM. The Kd on GppNHp KRAS G12D and on GDP KRAS G12D was no more than 100 nM throughout.
Take `Nc1nc2c(-c3c(C(F)(F)F)cc4c(N5CC6CCC(C5)N6)nc(OCC56CCCN5CCC6)nc4c3F)ccc(F)c2s1` [Compound 158, 4-(4-(3,8-diazabicyclo[3.2.1]octan-3-yl)-8-fluoro-2-((tetrahydro-1H-pyrrolizin-7a(5H)-yl)methoxy)-6-(trifluoromethyl)quinazolin-7-yl)-7-fluorobenzo[d]thiazol-2-amine]: the IC50 was 100 to 1000 nM in assay [1]; 100 to 1000 nM in assay [2]; no more than 100 nM in assay [3] (GP2d, 1 h). Besides, the Kd on GppNHp KRAS G12D and on GDP KRAS G12D was no more than 100 nM throughout.
For the molecule `Nc1nc2c(-c3c(Cl)cc4c(N5CC6CCC(C5)N6)nc(OCC56CCCN5CCC6)nc4c3F)ccc(F)c2s1` [Compound 157, 4-(4-(3,8-diazabicyclo[3.2.1]octan-3-yl)-6-chloro-8-fluoro-2-((tetrahydro-1H-pyrrolizin-7a(5H)-yl)methoxy)quinazolin-7-yl)-7-fluorobenzo[d]thiazol-2-amine], the IC50 was 100 to 1000 nM in assay [1]; 100 to 1000 nM in assay [2]; 100 to 1000 nM in assay [3] (GP2d, 1 h). The Kd on GppNHp KRAS G12D and at GDP KRAS G12D was no more than 100 nM each time.
For the molecule `CN(c1nc(OC[C@@]23CCCN2C[C@H](F)C3)nc2c(F)c(-c3ccc(F)c4sc(N)nc34)c(C(F)(F)F)cc12)[C@H]1CNC[C@H]1F` [Compound 290], the IC50 is 100 to 1000 nM in assay [1]; 100 to 1000 nM in assay [2]; no more than 100 nM in assay [3] (GP2d, 1 h). In addition, the Kd was 100 to 1000 nM on GppNHp KRAS G12D and no more than 100 nM on GDP KRAS G12D.
For the molecule `N#CC[C@H]1CN(c2ncnc3c(F)c(-c4ccc(F)c5sc(N)nc45)c(Cl)cc23)CCN1C(=O)CN` [Compound 29], the IC50 in assay [1] and in assay [2] was 10000 to 30000 nM each time. Also, the results for the dissociation constant Kd on GppNHp KRAS G12D and at GDP KRAS G12D were 10000 to 30000 nM and 1000 to 10000 nM, respectively.
Consider `NCCNc1ncnc2c(F)c(-c3ccc(F)c4sc(N)nc34)c(Cl)cc12` [Compound 5, N^1-(7-(2-amino-7-fluorobenzo[d]thiazol-4-yl)-6-chloro-8-fluoroquinazolin-4-yl)ethane-1,2-diamine], for which the IC50 in assay [1] and in assay [2] was 10000 to 30000 nM in each case. The Kd on GppNHp KRAS G12D fell in the range of 10000 to 30000 nM; on GDP KRAS G12D it was 1000 to 10000 nM.
For `CN1CCC[C@H]1COc1nc(N2CCN[C@@H](CC#N)C2)c2cc(Cl)c(-c3ccc(F)c4sc(N)nc34)c(F)c2n1` [Compound 56], the IC50 in assay [1] and in assay [2] was 10000 to 30000 nM each time. The Kd at GppNHp KRAS G12D was 10000 to 30000 nM; at GDP KRAS G12D, 100 to 1000 nM.
Consider `CN1CCC[C@H]1COc1nc(N2CCN(C(=O)CN)[C@@H](CC#N)C2)c2cc(Cl)c(-c3ccc(F)c4sc(N)nc34)c(F)c2n1` [Compound 54], for which the IC50 in assay [1] and in assay [2] was 1000 to 10000 nM each time. Besides, the figures for the Kd at GppNHp KRAS G12D and at GDP KRAS G12D were 1000 to 10000 nM and 100 to 1000 nM, respectively.
`CN(C)C1CN(c2nc(N3CCNCC3)c3cc(Cl)c(-c4ccc(F)c5sc(N)nc45)c(F)c3n2)C1` [Compound 47]: the IC50 in assay [1] and in assay [2] was 10000 to 30000 nM each time. Further, the values for the Kd at GppNHp KRAS G12D and on GDP KRAS G12D were 10000 to 30000 nM and 1000 to 10000 nM, respectively.
On to `Nc1nc2c(-c3c(C(F)(F)F)cc4c(N5CC6CCC(C5)N6)nc(OC[C@@]56CCCN5C[C@H](F)C6)nc4c3F)ccc(F)c2s1` (single isomer, unassigned) [Compound 246], for which the IC50 in assay [1] and in assay [2] was 1000 to 10000 nM each time. Besides, the Kd at GppNHp KRAS G12D was 1000 to 10000 nM; on GDP KRAS G12D it was no more than 100 nM.
